Article PMC9654333, “AmyP53, a Therapeutic Peptide Candidate for the Treatment of Alzheimer’s and Parkinson’s Disease: Safety, Stability, Pharmacokinetics Parameters and Nose-to Brain Delivery” (International Journal of Molecular Sciences, 2022)
Where “and” joins values, the source holds several entries; their conditions need not be identical. Equal entries are not always repeated. Entries after “also recorded” stand apart in the source; their conditions may differ. Where two headings read alike, the source gives them in different places. Ends that are not written are not given here.

Key:
[1] = set-up: method as in PMID 22963731, PMID 23444784, PMID 33551991, PMID 17720549, PMID 15728733; details: therapeutic peptides delivered to the brain via the intranasal route; cited from earlier work
[2] = test system: bEnd.3 murine endothelial cells (bEnd.3/C6 co-cultures); experiment: Transport through in vitro reconstituted blood–brain barrier (two-compartment chamber); format: in vitro ADME, mouse; details: for Transendothelial transport through the blood–brain barrier: bEnd.3/C6 model, donor basal to acceptor apical compartment
Experimental: An in vitro model of the blood–brain barrier was reconstituted with bEnd.3 murine endothelial cells obtained from the American Type Culture Collection (ATCC, Manassas, VA, USA) ref. bEnd.3 [BEND3] (ATCC CRL-2299). These cells were cultured in chambers with two compartments separated by a filter with a porosity of 0.4 µm (Corning-Transwell, Dominique Dutscher, Bernolsheim, France). The cells were seeded at a density of 50,000 cells per individual filter and cultured in a growth medium containing 10% fetal calf serum. After an initial spreading step, the bEnd.3 cells colonized the entire surface available on the filter, thus reconstituting a functional endothelium. At this stage, the cells established tight junctions preventing the passage of molecules and ions. In order to improve the differentiation of bEnd.3 cells, we also set up two coculture systems: [bEnd.3 + astrocytes (CTX cells)] and [bEnd.3 + glioma (C6 cells)]. In these cases, the glial cells were seeded in the basal compartment (non-contact model) and co-cultured for 6 days before using bEnd.3 cell monolayers for transport experiments. The impermeability of each of these cellular barriers was assessed by transendothelial resistance measurements with a Voltmeter-Ohmmeter Millicell-ERS (Merck-Millipore, Burlington, MA, USA). […] All experiments were performed 6 times.

[3] = rat, in vivo
Source text: (§3) Male and female Sprague Dawley rats, 6 weeks old at receipt, weighing around 300 g at the beginning of the experiments were used for pharmacokinetics studies. The animals that were included in these experiments were naïve to the previous administration of drugs. The acclimatization of rats lasted at least 5 days. Animals had free access to food (RM1, SDS Dietex) and drinking water ad libitum. […] The protocol used by Syncrosome was approved by an Animal Ethical Committee (French National Committee N°71) and by the Higher Education and Research Ministry (#2015070314429284_v2). […] Every effort was done to minimize animal suffering and to reduce the number of animals used in the experiments in compliance with the ARRIVE guidelines.
(§4) One compound formulation at one dose for each route of administration was tested during the present study. The data were treated with the PKsolver add-in of Excel [125].
(§5) Anesthetized (ketamine/medetomidine or isoflurane 4% for induction and then 2.5%) rats were treated intravenously once. The final volume of administration was 0.5 mL/kg (100 mg/kg body weight). As soon as the administration was performed (t0), a timer was started.
(§6) A catheter was introduced into each nostril of the rat with a depth of 7 mm [126]. Anesthetized (ketamine/medetomidine or isoflurane 4% for induction and then 2.5%) rats were treated once. The volume of administration was 10 μL/nostril (20 μL per rat, 12 mg/kg body weight). As soon as the administration was performed (t0), a timer was started.
(§7) Blood samples of 2 mL were collected through direct intracardiac puncture and separated on two K3-EDTA Greiner Bio-One tubes of 1 mL (ref. 454034A, Dominique Dutscher, Bernolsheim, France). A 100× solution of protease inhibitors (ref. 1862209, ThermoScientific, Waltham, MA, USA) was added immediately after sampling (10 μL/tube). The first tube of the blood sample was then separated in 2 samples with different procedures (with and without sonication) and the other one was used for plasma preparation.
(§8) Brains were collected immediately after blood collection, split in 2 hemispheres, and then transferred into Eppendorf tubes. Brain samples were placed into crushed dry ice for several minutes and frozen at −80 °C. When indicated, the rats were transcardially perfused with a solution of phosphate-buffered saline (PBS) for 10 min with a flow rate of 40 mL/min to remove blood in the brain tissue. A subcutaneous administration of buprenorphine (0.03 mg/kg) was performed at least 30 min prior to transcardial perfusion.
(§9) For blood and serum stability and for pharmacokinetics studies, blood and plasma samples (200 µL) were incubated with 3 volumes of methanol for 30 min at 4 °C and then centrifuged at 4 °C for 5 min (16,000× g). Supernatants were stored at −20 °C before analysis. Brain homogenates were prepared at 4 °C in PBS containing 1 mM EDTA and protease inhibitors (ref. 1862209, ThermoScientific, Waltham, MA, USA) in a glass Potter homogenizer. Homogenate samples (600 µL) were incubated with 3 volumes of methanol for 30 min at 4 °C and centrifuged at 4 °C for 5 min (16,000× g). Supernatants were evaporated under nitrogen flux and then diluted in 100 µL of 0.1% formic acid in water.
(§10) The concentrations of intact AmyP53 in biological samples were determined by liquid chromatography–mass spectrometry (Acquity iClass-Vion LC-MS; Waters, Guyancourt, France).

in vivo = details: both, Sprague Dawley, rat, 12 mg/kg
Source text: as §3, §4, §5, §6, §7, §8, §9, §10

[4] = cited from earlier work
[5] = Pharmacokinetics in rat blood and brain after intranasal or intravenous administration
Source text: as §3, §4, §5, §6, §7, §8, §9, §10

[6] = In vitro stability in rat whole blood (LC–MS); format: in vitro ADME
Experimental: (§1) Supernatants were stored at −20 °C before analysis.
(§2) AmyP53 in water solution (300 µM) was mixed with rat blood (obtained from Syncrosome, Marseille, France), or commercial human serum (Sigma-Aldrich, St. Louis, MO, USA). AmyP53 concentrations were then determined by LC–MS at the indicated times after extraction, as detailed above.

[7] = In vitro stability in commercial human serum (LC–MS); format: in vitro ADME
Experimental: as §1, §2

[8] = Chemical stability of aqueous solution upon storage (LC–MS); format: physicochemical; details: 1 mM in pure water, stored 18 months at 4 °C, 20 °C and 45 °C
Experimental: AmyP53 samples (1 mM in water) were stored at 4 °C, 20 °C, and 45 °C in sealed Eppendorf tubes and analyzed at different time points for chemical integrity (LC-MS method) and biological activity (binding to ganglioside GM1). For calibration, different dilutions of the standard solution were injected three times, and the peak area was measured for all three. […] The percentage of recovery was >98%, in full agreement with the certificate analysis of AmyP53 batch # #P190628-LL735654. LC–MS linearity was observed over the 5–100 pmol injected range (R^2 > 0.99). The minimal amount detected was 5 pmol.

[9] = Toxicology study, repeated intranasal administration over 7 days; details: for Behavior (Days 1–7) / Brain Histology / Inflammation at Nostrils / Body Weight (Day 7): rat; for Body Weight (Day 7): mean ± SEM, in g (unit assumed)
Experimental: Male and female Wistar rats (4 animals per group) were treated with the indicated dose of AmyP53, and toxicology studies were conducted as previously described [75]. Statistical analysis was performed with the Kruskal–Wallis test.

VIP: therapeutic peptide delivered to the brain via the intranasal route, 28 aa [reference compound]
pHi [1]: 9.8

TGF-β: therapeutic peptide delivered to the brain via the intranasal route, 112 aa
pHi [1]: 8.6

RGGRLAYLRRRWAVLGR [synB5, reference compound]
Transendothelial transport through the blood–brain barrier [2]: efficiently crossed the blood–brain barrier

EPO: therapeutic peptide delivered to the brain via the intranasal route, 165 aa
pHi [1]: 8.7

RRLSYSRRRF [synB3, reference compound]
Transendothelial transport through the blood–brain barrier [2]: efficiently crossed the blood–brain barrier

NGF: therapeutic peptide delivered to the brain via the intranasal route, 120 aa
pHi [1]: 9.0

KEGVLYVGHHTK [AmyP53]
Tmax ([3]; both, Sprague Dawley, 12 mg/kg): 5 min | AmyP53 reaching the brain [3]: 1.57% | Efficiency of nose-to-brain delivery versus blood circulation [3]: 7.85 fold | Tmax (in vivo): 10 min | Inflammatory reaction in the nostrils and the tails ([4]; AmyP53-treated rats): no inflammatory reaction could be observed | Tolerance ([4]; rats, administered intravenously or intranasally): perfect tolerance | Undesirable effects ([4]; rats, intranasal administration, doses up to 5 mg/kg body weight): no undesirable effect could be detected | Undesirable effects ([4]; rats, intravenous administration, doses up to 80 mg/kg): no undesirable effect could be detected | Ratio of AUCIN/AUCiv ([5]; blood): 123% | Ratio of AUCIN/AUCiv ([5]; brain): 94% | half-life at 300 µM ([6]; rat fresh whole blood, read-out: Half-life time): 17 min | Detection after incubation ([6]; rat whole blood, 300 µM, 60 min): still detected after 60 min | half-life at 300 µM ([7]; commercial human serum, read-out: Half-life time): 5 min | Detection after incubation ([7]; human serum, 300 µM, 30 min): no longer detected in serum after 30 min | Chemical stability in water solution [8]: remains chemically intact over 18 months; also recorded: remained remarkably stable under all these conditions | solubility (physchem): > 146000 µM and > 200000 µg/mL | Toxicology findings after repeated intranasal injections ([9]; male and female Wistar rats, doses up to 5 mg/kg body weight, 7-day period): no mortality, no behavioral changes, no body weight loss, and no alterations of brain tissue at autopsy | Behavior (Days 1–7) ([9]; female, intranasal 0.2 mg/kg): NTR NTR | Brain Histology ([9]; female, intranasal 0.2 mg/kg): NTR NTR | Inflammation at Nostrils ([9]; female, intranasal 0.2 mg/kg every two days during 7 days): No No | Body Weight (Day 7) ([9]; female, intranasal 0.2 mg/kg): 189.46 ± 15.15 | Behavior (Days 1–7) ([9]; female, intranasal 1.0 mg/kg): NTR NTR | Brain Histology ([9]; female, intranasal 1.0 mg/kg): NTR NTR | Inflammation at Nostrils ([9]; female, intranasal 1.0 mg/kg every two days during 7 days): No No | Body Weight (Day 7) ([9]; female, intranasal 1.0 mg/kg): 191.03 ± 3.13 | Behavior (Days 1–7) ([9]; female, intranasal 5.0 mg/kg): NTR NTR | Brain Histology ([9]; female, intranasal 5.0 mg/kg): NTR NTR | Inflammation at Nostrils ([9]; female, intranasal 5.0 mg/kg every two days during 7 days): No No | Body Weight (Day 7) ([9]; female, intranasal 5.0 mg/kg): 185.70 ± 5.77 | Behavior (Days 1–7) ([9]; male, intranasal 0.2 mg/kg): NTR NTR | Brain Histology ([9]; male, intranasal 0.2 mg/kg): NTR NTR | Inflammation at Nostrils ([9]; male, intranasal 0.2 mg/kg every two days during 7 days): No No | Body Weight (Day 7) ([9]; male, intranasal 0.2 mg/kg): 248.94 ± 8.51 | Behavior (Days 1–7) ([9]; male, intranasal 1.0 mg/kg): NTR NTR | Brain Histology ([9]; male, intranasal 1.0 mg/kg): NTR NTR | Inflammation at Nostrils ([9]; male, intranasal 1.0 mg/kg every two days during 7 days): No No | Body Weight (Day 7) ([9]; male, intranasal 1.0 mg/kg): 252.26 ± 5.77 | Behavior (Days 1–7) ([9]; male, intranasal 5.0 mg/kg): NTR NTR | Brain Histology ([9]; male, intranasal 5.0 mg/kg): NTR NTR | Inflammation at Nostrils ([9]; male, intranasal 5.0 mg/kg every two days during 7 days): No No | Body Weight (Day 7) ([9]; male, intranasal 5.0 mg/kg): 250.90 ± 5.68 | Transendothelial transport through the blood–brain barrier [2]: almost as effective as synB3 and more than synB5; also recorded: at least as efficiently as syn B3 and even more than syn B5 | Transendothelial resistance during incubation ([2]; reconstituted blood–brain barrier, incubation with AmyP53): remained unchanged

Vasopressin [reference compound]
pHi [1]: 8.0
